Drawing on the supplement of paper PMC11061612, this text covers Bliss excess for 8 compounds.

What all share (assay): Bliss excess, mean over the matrix (fraction); higher = more synergy
The test system of experiment [1] is 23132-87 (Gastric Carcinoma). Put shortly:
(§1)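 Bliss excess equals the observed combination effect minus the expected value EA + EB − EA·EB, where EA and EB are the effects of each agent alone. Combination Emax is the second-highest inhibition within the matrix. Inhibition was scaled from CellTiter-Glo 2.0 luminescence, with 0 set by vehicle wells and 1 by blank wells, after 72 hours of two-drug dosing of cells plated in 1536-well plates.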

The test system of experiment [2] is A2058 (Melanoma). An outline of the steps: as §1
For experiment [3], the system named is COLO-680N (Esophageal Squamous Cell Carcinoma). Put shortly: as §1
Experiment [4] has as its system HCT-15 (Colorectal Carcinoma). Put shortly:
as §1

For experiment [5], the system named is HEC-1 (Endometrial Carcinoma). An outline of the steps:
as §1

The subject of experiment [6] is KE-37 (T-Lymphoblastic Leukemia). An outline of the steps:
as §1

For experiment [7], the system named is LB996-RCC (Kidney Carcinoma). An outline of the steps: as §1
Experiment [8] has as its system LN-229 (Glioblastoma). An outline of the steps:
as §1

For experiment [9], the system named is MKN45 (Gastric Carcinoma). An outline of the steps: as §1
Experiment [10] deals with NCI-H23 (Lung Adenocarcinoma). Put shortly: as §1
The subject of experiment [11] is PANC-03-27 (Pancreatic Carcinoma). Put shortly:
as §1

The subject of experiment [12] is PC-3_[JPC-3] (Lung Adenocarcinoma). An outline of the steps:
as §1

In experiment [13] the test system is RCM-1 (Colorectal Carcinoma). Put shortly:
as §1

Experiment [14] relates to RERF-GC-1B (Gastric Carcinoma). Put shortly: as §1
In experiment [15] the test system is RERF-LC-Sq1 (Squamous Cell Lung Carcinoma). Put shortly: as §1
The test system of experiment [16] is RKN (Other Solid Carcinomas). Put shortly: as §1
Experiment [17] deals with SF539 (Glioblastoma). Put shortly:
as §1

Experiment [18] concerns SU-DHL-10 (B-Cell Non-Hodgkin's Lymphoma). Put shortly: as §1
Experiment [19] relates to TE-8 (Esophageal Squamous Cell Carcinoma). Put shortly: as §1
Experiment [20] concerns WM793B (Melanoma). Put shortly: as §1

Take `CCN(CCO)CCCOc1ccc2c(Nc3cc(CC(=O)Nc4cccc(F)c4)[nH]n3)ncnc2c1` [AZD2811] + C=CCn1c(=O)c2cnc(Nc3ccc(N4CCN(C)CC4)cc3)nc2n1-c1cccc(C(C)(C)O)n1 [AZD1775] (first compound max 1 µM, partner max 1 µM): the Bliss excess was 0.0208 in experiment [1]; -0.0059 in [2]; -0.0147 in experiment [3]; 0.156 in [4]; 0.0124 in [5]; 0.0353 in [6]. Moreover, the Bliss excess in [7] was 0.0623; in experiment [8], -0.0363; in [9] it was -0.0302; in experiment [10], -0.0005; in experiment [11], 0.001; in experiment [12], -0.0752. The Bliss excess is 0.0398 in experiment [13]; 0.0335 in [14]; -0.0102 in [15]; -0.0017 in experiment [16]; 0.0972 in experiment [17]; -0.0481 in experiment [18]. Moreover, the values for the Bliss excess in experiment [19] and in experiment [20] were -0.016 and 0.02, respectively.
As for `CN(CCO)CC[C@H](CSc1ccccc1)Nc1ccc(S(=O)(=O)NC(=O)c2ccc(N3CCC([C@@H](O)c4ccccc4-c4ccc(Cl)cc4)CC3)cc2)cc1S(=O)(=O)C(F)(F)F` [AZD4320] + C=CCn1c(=O)c2cnc(Nc3ccc(N4CCN(C)CC4)cc3)nc2n1-c1cccc(C(C)(C)O)n1 [AZD1775] (first compound max 1 µM, partner max 1 µM), the Bliss excess in [1] was 0.072; in [2], 0.0066; in experiment [3], 0.0065; in [4], -0.054; in experiment [5] it was 0.0194; in experiment [6] it was 0.0578. The Bliss excess is 0.0405 in experiment [7]; 0.0438 in experiment [8]; 0.0364 in experiment [10]; 0.0079 in experiment [11]; -0.0114 in experiment [12]; -0.0586 in experiment [13]. Moreover, the Bliss excess in experiment [14] was 0.0515; in experiment [15], -0.0021; in [16], -0.0357; in experiment [17], -0.0518; in experiment [18], 0.0069; in experiment [19], 0.0378. Moreover, the Bliss excess in experiment [20] was -0.0248.
As to `CN(CCO)CC[C@H](CSc1ccccc1)Nc1ccc(S(=O)(=O)NC(=O)c2ccc(N3CCC([C@@H](O)c4ccccc4-c4ccc(Cl)cc4)CC3)cc2)cc1S(=O)(=O)C(F)(F)F` [AZD4320] + Cn1cnc2c(F)c(Nc3ccc(Br)cc3Cl)c(C(=O)NOCCO)cc21 [Selumetinib] (first compound max 1 µM, 7x7, partner max 3 µM), the Bliss excess in experiment [1] was 0.0543; in [3], 0.0047; in experiment [4], 0.0267; in experiment [5], -0.018; in [6] it was 0.0464; in experiment [7], -0.0445. Moreover, the Bliss excess in [8] is 0.0585; in experiment [9] it was -0.0725; in experiment [10], 0.0703; in [11], 0.0406; in experiment [12], 0.0339; in experiment [13] it was 0.0333. The Bliss excess in experiment [14] is 0.022; in experiment [15], 0.0158; in experiment [16] it was 0.0307; in [17], 0.0176; in experiment [18], 0.0912; in [19] it was -0.0628. Also, the Bliss excess in [20] worked out at 0.0604.
For the compound `COc1nnc2ccc(N3CCC(c4ccc(OCCN5CCN(C)C(=O)[C@H]5C)cc4)CC3)nn12` [AZD5153] + CN(CC[C@H](CSC1=CC=CC=C1)NC2=C(C=C(C=C2)S(=O)(=O)NC(=O)C3=CC=C(C=C3)N4CCC(CC4)[C@H](C5=CC=CC=C5C6=CC=C(C=C6)Cl)O)S(=O)(=O)C(F)(F)F)CCO [AZD4320] (first compound max 1 µM, 7x7, partner max 1 µM), the Bliss excess is -0.0551 in experiment [1]; -0.0062 in experiment [2]; -0.0035 in experiment [4]; 0.0486 in [5]; 0.0222 in experiment [6]; 0.0253 in experiment [7]. In addition, the Bliss excess in experiment [8] was 0.0357; in experiment [10], -0.0027; in [14] it was 0.014; in experiment [15], 0.0113; in experiment [18] it was -0.0269; in experiment [20], -0.0257.
For the compound `Cc1c2c(nn1C)CSCc1cc(n(C)n1)CSc1cc(c3ccccc3c1)OCCCc1c(C(=O)O)n(C)c3c-2c(Cl)ccc13` [AZD5991] + C[C@@H]1COCCN1C2=NC(=NC(=C2)C3(CC3)[S@](=N)(=O)C)C4=C5C=CNC5=NC=C4 [AZD6738] (first compound max 1 µM, 7x7, partner max 10 µM), the Bliss excess in experiment [1] is -0.009; in experiment [2], 0.0756; in experiment [3], 0.0186; in [4], 0.0431; in [5], 0.0258; in [6], 0.0338. For the same compound, the Bliss excess was 0.0301 in [7]; 0.0344 in [8]; -0.0812 in [9]; -0.0037 in experiment [10]; 0.0059 in experiment [11]; 0.0547 in experiment [12]. In addition, the Bliss excess in experiment [13] was -0.0371; in [15], 0.0273; in experiment [16], 0.0098; in [17] it was -0.0231; in experiment [18], -0.0128; in experiment [19], 0.0197. Besides, the Bliss excess in [20] worked out at 0.0503.
As for `CC(=O)c1c(C)c2cnc(Nc3ccc(N4CCNCC4)cn3)nc2n(C2CCCC2)c1=O` [Palbociclib] + CN(CC[C@H](CSC1=CC=CC=C1)NC2=C(C=C(C=C2)S(=O)(=O)NC(=O)C3=CC=C(C=C3)N4CCC(CC4)[C@H](C5=CC=CC=C5C6=CC=C(C=C6)Cl)O)S(=O)(=O)C(F)(F)F)CCO [AZD4320] (first compound max 10 µM, 7x7, partner max 1 µM), the Bliss excess in experiment [1] is -0.093; in [2], -0.0261; in experiment [4], -0.0286; in [5], -0.125; in [6], -0.0137; in [7], -0.0652. Moreover, the Bliss excess was -0.059 in [8]; -0.0367 in experiment [10]; -0.0147 in experiment [14]; -0.0176 in experiment [15]; 0.0319 in [18]; -0.0525 in experiment [20].
Consider `CCc1c2c(nc3ccc(O)cc13)-c1cc3c(c(=O)n1C2)COC(=O)[C@]3(O)CC` [SN-38] + O=C(c1cc(Cc2n[nH]c(=O)c3ccccc23)ccc1F)N1CCN(C(=O)C2CC2)CC1 [Olaparib] (first compound max 0.3 µM, 7x7, partner max 10 µM), for which the Bliss excess came out at 0.0174 in experiment [1]; 0.038 in experiment [2]; 0.0012 in experiment [3]; 0.0754 in experiment [4]; 0.0181 in [5]; 0.0357 in experiment [6]. Further, the Bliss excess in experiment [7] is -0.0651; in experiment [9] it was -0.0495; in experiment [11], 0.0498; in experiment [12], 0.113; in experiment [13], -0.0176; in experiment [15], 0.0502. The Bliss excess in [16] worked out at 0.0145; in experiment [17], 0.0549; in [19] it was 0.0202.
On to `C[C@@H](c1ccc2nccn2c1)n1nnc2ncc(-c3cnn(C)c3)nc21` [Savolitinib] + CN(CC[C@H](CSC1=CC=CC=C1)NC2=C(C=C(C=C2)S(=O)(=O)NC(=O)C3=CC=C(C=C3)N4CCC(CC4)[C@H](C5=CC=CC=C5C6=CC=C(C=C6)Cl)O)S(=O)(=O)C(F)(F)F)CCO [AZD4320] (first compound max 1 µM, 7x7, partner max 1 µM), for which the Bliss excess in experiment [1] was -0.0618; in [2], 0.0035; in experiment [4], -0.0274; in experiment [5] it was -0.027; in experiment [6], -0.0327; in experiment [7], -0.0392. The Bliss excess is -0.0833 in [8]; 0.0248 in experiment [10]; -0.0404 in [14]; -0.0075 in experiment [15]; -0.0067 in [18]; -0.0644 in experiment [20].
